Assay [1] concerns the target Human neutrophil collagenase (HNC) (Homo sapiens, UniProt P22894). Nature of the assay: Human Neutrophil Collagenase Assay. Format: biochemical. To be noted: fluorogenic peptide substrate, 96-well plate in duplicate; reference inhibitor.
Protocol: Human neutrophil collagenase (HNC) activity is determined by using fluorogenic peptide substrate Dnp-Pro-b-Cyclohexyl-Ala-Gly-Cys(Me)-His-Ala-Lys-(N-methylanthranilic acid)-NH2. The N-terminus Dnp group and the C-terminus N-methyl-anthranilyl moiety (Nma) are fluorescence self-quenching until the peptide is cleaved at the Gly-Cys(me) bond. The fluorescence from the cleavage products is measured on a Bio-Tek Instrument FL500 fluorescence micro-plate reader (excitation at 360 nm, emission at 460 nm).
Assay [2] has as its target Human fibroblast stromelysin (HFS) (Homo sapiens, UniProt P08254). Nature of the assay: biochemical.
Protocol: Human Fibroblast Stromelysin Assay
Human fibroblast stromelysin (HFS) activity is determined by using fluorogenic peptide substrate Dnp-Pro-b-Cyclohexyl-Ala-Gly-Cys(Me)-His-Ala-Lys-(N-methylanthranilic acid)-NH2. The N-terminus Dnp group and the C-terminus N-methyl-anthranilyl moiety (Nma) are fluorescence self-quenching until the peptide is cleaved at the Gly-Cys(me) bond. The fluorescence from the cleavage products is measured on a Bio-Tek Instrument FL500 fluorescence micro-plate reader (excitation at 360 nm, emission at 460 nm).

pKi: −log10 of the molar value.

Sequence of Human fibroblast stromelysin (HFS) (P08254 100-477): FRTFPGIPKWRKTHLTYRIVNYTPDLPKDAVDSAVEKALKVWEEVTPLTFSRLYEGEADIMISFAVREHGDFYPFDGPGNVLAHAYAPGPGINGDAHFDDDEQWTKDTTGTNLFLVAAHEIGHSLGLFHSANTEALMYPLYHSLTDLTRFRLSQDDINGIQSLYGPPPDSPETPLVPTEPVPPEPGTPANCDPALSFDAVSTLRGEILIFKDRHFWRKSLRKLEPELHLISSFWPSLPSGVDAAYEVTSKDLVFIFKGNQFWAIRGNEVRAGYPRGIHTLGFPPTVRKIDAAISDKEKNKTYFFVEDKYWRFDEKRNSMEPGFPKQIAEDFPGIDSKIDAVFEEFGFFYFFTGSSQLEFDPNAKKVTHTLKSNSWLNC
Sequence of Human neutrophil collagenase (HNC) (P22894 101-467): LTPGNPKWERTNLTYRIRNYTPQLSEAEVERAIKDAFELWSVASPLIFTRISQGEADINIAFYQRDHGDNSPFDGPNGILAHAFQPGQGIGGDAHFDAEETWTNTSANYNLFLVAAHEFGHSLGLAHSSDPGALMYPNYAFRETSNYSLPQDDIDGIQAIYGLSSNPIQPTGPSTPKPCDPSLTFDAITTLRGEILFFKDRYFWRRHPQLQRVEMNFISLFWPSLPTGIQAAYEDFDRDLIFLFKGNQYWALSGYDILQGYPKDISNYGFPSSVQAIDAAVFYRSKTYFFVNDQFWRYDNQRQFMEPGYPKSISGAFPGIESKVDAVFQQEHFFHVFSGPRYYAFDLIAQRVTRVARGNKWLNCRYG

As for `CCCCC[C@H](CC(=O)NO)C(=O)N[C@H](C(=O)N1CCC[C@H]1CO)C(C)C` [Actinonin], the pKi in assay [1] and in assay [2] was 6.14 in each case.

A word on the pKi: it is the Ki on a negative log10 scale, so that one unit is a factor of ten. The low end stands for a large Ki, the high end for a small Ki.

These data come from patent publication US7022690B2, “Carboxylic acid substituted heterocycles, derivatives thereof and methods of use” (Amgen Inc., priority 1997, dated 2006).
